Measured values reported in patent publication US11168073B2, “3,3-difluoroallylamines or salts thereof and pharmaceutical compositions comprising the same” (YUHAN CORPORATION, priority 2018, dated 2021).
Counter-ions that a name gives are not always drawn.

Legend:
Type in all cases: biochemical
[1] = biological target: T1, recombinant human DAO (diamine oxidase) (Homo sapiens, UniProt P19801); assay: Activity evaluation on recombinant human DAO (Amplex Red/HRP-coupled assay, 1 mM putrescine substrate); details: 1 mM putrescine substrate, read-out: Inhibitory Activity (IC50, nM) DAO
T1 construct: purchased R&D systems
T1 sequence (P19801 20-751): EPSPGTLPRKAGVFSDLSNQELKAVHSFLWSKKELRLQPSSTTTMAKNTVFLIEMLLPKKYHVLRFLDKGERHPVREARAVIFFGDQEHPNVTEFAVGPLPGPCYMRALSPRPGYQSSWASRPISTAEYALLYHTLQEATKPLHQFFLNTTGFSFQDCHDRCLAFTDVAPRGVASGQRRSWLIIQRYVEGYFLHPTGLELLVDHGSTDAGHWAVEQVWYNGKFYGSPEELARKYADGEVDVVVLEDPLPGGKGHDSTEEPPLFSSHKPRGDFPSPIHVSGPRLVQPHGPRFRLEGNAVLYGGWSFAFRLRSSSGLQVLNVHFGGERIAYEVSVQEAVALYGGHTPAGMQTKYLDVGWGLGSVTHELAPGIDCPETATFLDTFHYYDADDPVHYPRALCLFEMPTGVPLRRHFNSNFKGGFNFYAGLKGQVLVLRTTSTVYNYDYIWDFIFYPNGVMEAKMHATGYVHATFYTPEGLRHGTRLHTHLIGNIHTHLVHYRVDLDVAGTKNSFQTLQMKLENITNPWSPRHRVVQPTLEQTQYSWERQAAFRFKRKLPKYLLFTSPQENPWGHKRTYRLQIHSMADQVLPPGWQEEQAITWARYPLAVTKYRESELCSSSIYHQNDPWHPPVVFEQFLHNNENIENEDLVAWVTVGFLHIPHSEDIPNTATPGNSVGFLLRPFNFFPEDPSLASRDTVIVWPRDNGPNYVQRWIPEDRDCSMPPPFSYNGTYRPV
Summary of the method: (§1)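 Enzyme was preincubated with compounds (8-point 1:3 series, final DMSO <1%) 30 min at 37 °C in 50 mM sodium phosphate pH 7.4, then given 200 uM Amplex Red and 1 U/mL HRP with substrate. H2O2-derived resorufin fluorescence (ex 544/em 590 nm) was followed over 1–2 h; IC50 came from 4-parameter logistic fits of signal-rate inhibition versus DMSO control.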

[2] = biological target: T2, recombinant human MAO-B (monoamine oxidase-B) (Homo sapiens, UniProt P27338); assay: Activity evaluation on recombinant human MAO-B (Amplex Red/HRP-coupled assay, 1 mM benzylamine substrate); details: 1 mM benzylamine substrate, read-out: Inhibitory Activity (IC50, nM) MAO-B
T2 construct: purchased Sigma-Aldrich
T2 sequence (P27338 1-520): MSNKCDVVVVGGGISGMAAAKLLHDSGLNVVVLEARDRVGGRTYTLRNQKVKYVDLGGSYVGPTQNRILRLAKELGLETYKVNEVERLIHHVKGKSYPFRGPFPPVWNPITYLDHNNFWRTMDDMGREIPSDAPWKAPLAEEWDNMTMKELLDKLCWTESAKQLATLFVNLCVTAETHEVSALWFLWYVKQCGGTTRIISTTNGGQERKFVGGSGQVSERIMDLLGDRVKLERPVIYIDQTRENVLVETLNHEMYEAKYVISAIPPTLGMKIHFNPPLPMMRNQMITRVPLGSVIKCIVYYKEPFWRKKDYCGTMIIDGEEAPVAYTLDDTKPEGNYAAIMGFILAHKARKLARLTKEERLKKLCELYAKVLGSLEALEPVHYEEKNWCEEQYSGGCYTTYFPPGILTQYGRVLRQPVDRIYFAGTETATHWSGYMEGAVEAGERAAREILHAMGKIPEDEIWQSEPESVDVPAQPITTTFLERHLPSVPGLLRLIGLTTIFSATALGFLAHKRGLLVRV
Summary of the method: as §1

[3] = biological target: T3, recombinant human MAO-A (monoamine oxidase-A) (Homo sapiens, UniProt P21397); assay: Activity evaluation on recombinant human MAO-A (Amplex Red/HRP-coupled assay, 0.5 mM tyramine substrate); details: 0.5 mM tyramine substrate, read-out: Inhibitory Activity (IC50, nM) MAO-A
T3 construct: purchased Sigma-Aldrich
T3 sequence (P21397 1-527): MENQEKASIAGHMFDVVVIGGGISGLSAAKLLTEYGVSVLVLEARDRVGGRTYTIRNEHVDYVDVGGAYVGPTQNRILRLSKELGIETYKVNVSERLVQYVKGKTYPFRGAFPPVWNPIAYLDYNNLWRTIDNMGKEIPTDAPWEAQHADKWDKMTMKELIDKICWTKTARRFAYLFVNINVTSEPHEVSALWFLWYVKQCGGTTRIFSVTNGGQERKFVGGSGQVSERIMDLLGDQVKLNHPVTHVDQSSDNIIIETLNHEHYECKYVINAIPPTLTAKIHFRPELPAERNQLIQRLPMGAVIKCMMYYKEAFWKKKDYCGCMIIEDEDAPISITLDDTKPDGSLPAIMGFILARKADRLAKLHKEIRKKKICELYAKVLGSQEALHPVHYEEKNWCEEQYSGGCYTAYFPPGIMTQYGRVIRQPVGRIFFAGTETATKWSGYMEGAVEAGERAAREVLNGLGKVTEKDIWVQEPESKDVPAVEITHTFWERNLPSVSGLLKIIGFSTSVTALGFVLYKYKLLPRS
Summary of the method: as §1

recombinant human VAP-1 = biological target: T4, recombinant human VAP-1 (Homo sapiens, UniProt Q16853); assay: Activity evaluation on recombinant human VAP-1 (Amplex Red/HRP-coupled hydrogen peroxide assay, benzylamine substrate); details: recombinant human VAP-1, benzylamine substrate; read-out: Inhibitory Activity (IC50, nM) human VAP-1
T4 construct: purchased R&D systems
T4 sequence (Q16853 1-763): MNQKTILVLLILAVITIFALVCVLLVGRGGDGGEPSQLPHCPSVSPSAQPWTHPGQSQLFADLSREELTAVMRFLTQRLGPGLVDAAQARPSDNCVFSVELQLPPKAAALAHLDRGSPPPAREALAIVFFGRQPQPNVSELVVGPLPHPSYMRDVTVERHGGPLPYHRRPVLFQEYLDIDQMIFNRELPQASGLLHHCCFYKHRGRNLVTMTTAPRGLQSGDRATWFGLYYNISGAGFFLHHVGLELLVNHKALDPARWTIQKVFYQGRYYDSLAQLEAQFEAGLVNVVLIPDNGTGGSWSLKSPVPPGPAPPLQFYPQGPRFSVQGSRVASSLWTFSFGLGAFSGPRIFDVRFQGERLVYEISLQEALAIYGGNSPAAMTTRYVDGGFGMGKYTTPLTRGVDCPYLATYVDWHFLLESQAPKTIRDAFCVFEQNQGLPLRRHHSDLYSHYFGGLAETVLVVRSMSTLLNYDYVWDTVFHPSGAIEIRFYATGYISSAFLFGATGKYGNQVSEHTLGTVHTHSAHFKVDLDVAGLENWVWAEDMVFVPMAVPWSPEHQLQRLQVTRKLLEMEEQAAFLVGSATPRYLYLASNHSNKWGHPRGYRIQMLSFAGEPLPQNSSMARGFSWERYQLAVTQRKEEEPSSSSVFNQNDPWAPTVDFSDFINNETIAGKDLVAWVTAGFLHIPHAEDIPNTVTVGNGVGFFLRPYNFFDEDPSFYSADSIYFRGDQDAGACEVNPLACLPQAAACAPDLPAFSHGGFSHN
Summary of the method: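 Recombinant human VAP-1 in 50 mM sodium phosphate pH 7.4 preincubated 30 min at 37 °C with compound (8-point 1:3 series, <1% DMSO), then 1 mM benzylamine, 200 uM Amplex Red, 1 U/mL HRP added. H2O2-derived resorufin fluorescence (ex 544/em 590) followed 1–2 h; IC50 from four-parameter fit of rate inhibition.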

SMILES	IC50 [1]	IC50 [2]	IC50 [3]	IC50 (recombinant human VAP-1)
NCC(Cn1ncn(Cc2cc(-c3cnn(C(F)F)c3)cs2)c1=O)=C(F)F [Example 194, 2-[2-(aminomethyl)-3,3-difluoro-allyl]-4-[[4-[1-(difluoromethyl)pyrazol-4-yl]-2-thienyl]methyl]-1,2,4-triazol-3-one Trifluoroacetate]	64000 nM	9200 nM	> 100000 nM	2.9 nM
CC(C)n1cc(-c2csc(Cn3cnn(CC(CN)=C(F)F)c3=O)c2)cn1 [Example 195, 2-[2-(aminomethyl)-3,3-difluoro-allyl]-4-[[4-(1-isopropylpyrazol-4-yl)-2-thienyl]methyl]-1,2,4-triazol-3-one Trifluoroacetate]	31000 nM	38000 nM	> 100000 nM	2 nM
NCC(Cn1ncn(Cc2cc3ccc(-c4ccc(C(F)(F)F)nc4)cc3s2)c1=O)=C(F)F [Example 199, 2-[2-(aminomethyl)-3,3-difluoro-allyl]-4-[[6-[6-(trifluoromethyl)-3-pyridyl]benzothiophen-2-yl]methyl]-1,2,4-triazol-3-one Trifluoroacetate]	15000 nM	1100 nM	> 100000 nM	1.7 nM
CN(C)c1ccc(-c2ccc3cc(Cn4cnn(CC(CN)=C(F)F)c4=O)sc3c2)cn1 [Example 200, 2-[2-(aminomethyl)-3,3-difluoro-allyl]-4-[[6-[6-(dimethylamino)-3-pyridyl]benzothiophen-2-yl]methyl]-1,2,4-triazol-3-one Trifluoroacetate]	> 100000 nM	740 nM	> 100000 nM	1.9 nM
NCC(Cn1ncn(Cc2cc3ccc(-c4ccc5c(c4)OCO5)cc3s2)c1=O)=C(F)F [Example 201, 2-[2-(aminomethyl)-3,3-difluoro-allyl]-4-[[6-(1,3-benzodioxol-5-yl)benzothiophen-2-yl]methyl]-1,2,4-triazol-3-one Trifluoroacetate]	27000 nM	2000 nM	90800 nM	2.8 nM
CN1C(=O)CCc2cc(-c3ccc4cc(Cn5cnn(CC(CN)=C(F)F)c5=O)sc4c3)ccc21 [Example 203, 6-[2-[[1-[2-(aminomethyl)-3,3-difluoro-allyl]-5-oxo-1,2,4-triazol-4-yl]methyl]benzothiophen-6-yl]-1-methyl-3,4-dihydroquinolin-2-one Trifluoroacetate]	4000 nM	780 nM	> 100000 nM	1.5 nM

More lines, in order of falling IC50 [1], values ahead:

IC50 [1]	IC50 [2]	IC50 [3]	IC50 (recombinant human VAP-1)	SMILES
5600 nM	> 100000 nM	> 100000 nM	2 nM	Cc1cc(-c2ccc3cc(Cn4cnn(CC(CN)=C(F)F)c4=O)sc3c2)cc2c1NC(=O)CC2 [Example 202, 6-[2-[[1-[2-(aminomethyl)-3,3-difluoro-allyl]-5-oxo-1,2,4-triazol-4-yl]methyl]benzothiophen-6-yl]-8-methyl-3,4-dihydro-1H-quinolin-2-one Trifluoroacetate]
2400 nM	18000 nM	> 100000 nM	0.8 nM	CS(=O)(=O)c1ccc(-c2ccc3cc(Cn4cnn(CC(CN)=C(F)F)c4=O)sc3c2)cc1 [Example 197, 2-[2-(aminomethyl)-3,3-difluoro-allyl]-4-[[6-(4-methylsulfonylphenyl)benzothiophen-2-yl]methyl]-1,2,4-triazol-3-one trifluoroacetate]
1900 nM	2900 nM	> 100000 nM	1.4 nM	NCC(Cn1ncn(Cc2cc(-c3cccc(-c4nc[nH]n4)c3)cs2)c1=O)=C(F)F [Example 196, 2-[2-(aminomethyl)-3,3-difluoro-allyl]-4-[[4-[3-(1H-1,2,4-triazol-3-yl)phenyl]-2-thienyl]methyl]-1,2,4-triazol-3-one Trifluoroacetate]
880 nM	23000 nM	> 100000 nM	4.6 nM	NCC(Cn1ncn(Cc2cc3ccc(-c4ccc(N5CCNCC5)cc4)cc3s2)c1=O)=C(F)F [Example 198, 2-[2-(aminomethyl)-3,3-difluoro-allyl]-4-[[6-(4-piperazin-1-ylphenyl)benzothiophen-2-yl]methyl]-1,2,4-triazol-3-one Ditrifluoroacetate]
